In patent US20070015823A1, “Ambruticin VS compounds” (priority 2004, published 2007):
In brackets after ≈: the same amount, converted by molar mass. Where two headings read alike, the source gives them in different places.

How the values were obtained:
A. flavus ATCC 204304 = assay: Broth microdilution antifungal susceptibility, NCCLS M38-A; type: cell-based, Aspergillus flavus; details: minimal concentration inhibiting >95% growth; average of at least two assays (except I-l and I-x)
A. fumigatus ATCC 204305 = assay: as above; type: cell-based, Aspergillus fumigatus; details: minimal concentration inhibiting >95% growth; average of at least two assays (except I-l and I-x)
[1] = system: Trichophyton mentagrophytes; assay: Dermatophyte broth microdilution, NCCLS M38-A; type: cell-based
Microsporum gypseum = assay: Dermatophyte broth microdilution, NCCLS M38-A; type: cell-based
[2] = system: Trichophyton interdigitale; assay: Dermatophyte broth microdilution, NCCLS M38-A; type: cell-based
Epidermophyton floccosum = assay: Dermatophyte broth microdilution, NCCLS M38-A; type: cell-based
Trichophyton rubrum = assay: Dermatophyte broth microdilution, NCCLS M38-A; type: cell-based
Microsporum canis = assay: Dermatophyte broth microdilution, NCCLS M38-A; type: cell-based
C. posadasii = assay: microbe, parasite or virus in culture; type: cell-based, Coccidioides posadasii; details: for MIC: Coccidioides posadasii
C. immitis = assay: microbe, parasite or virus in culture; type: cell-based, Coccidioides immitis; details: for MIC: Coccidioides immitis
Cryptococcus neoformans = assay: Broth microdilution antifungal susceptibility, NCCLS M38-A; details: 50% growth inhibition, range = minimum and maximum of multiple assays; for MIC C. neoformans 97-14: strain 97-14; for MIC C. neoformans 11239: strain 11239; for MIC C. neoformans 11240: strain 11240
Blastomyces dermatitidis = assay: as above; type: cell-based
Histoplasma capsulatum = type: cell-based

Structure (SMILES)	MIC0 A. flavus ATCC 204304 (A. flavus ATCC 204304) [µg/mL]	MIC0 A. fumigatus ATCC 204305 (A. fumigatus ATCC 204305) [µg/mL]	MIC0 Tm [1] [µg/mL]	MIC0 Mg (Microsporum gypseum) [µg/mL]	MIC0 Ti [2] [µg/mL]	MIC0 Ef (Epidermophyton floccosum) [µg/mL]	MIC0 Tr (Trichophyton rubrum) [µg/mL]	MIC0 Mc (Microsporum canis) [µg/mL]	MIC C. neoformans 97-14 (Cryptococcus neoformans) [µg/mL]	MIC C. neoformans 11239 (Cryptococcus neoformans) [µg/mL]	MIC C. neoformans 11240 (Cryptococcus neoformans) [µg/mL]	MIC B. dermatitidis Gu (Blastomyces dermatitidis) [µg/mL]	MIC B. dermatitidis Kr (Blastomyces dermatitidis) [µg/mL]	MIC B. dermatitidis V (Blastomyces dermatitidis) [µg/mL]	MIC H. capsulatum G217B (Histoplasma capsulatum) [µg/mL]	MIC H. capsulatum GS20 (Histoplasma capsulatum) [µg/mL]	also measured
CCOC(=O)O[C@H]1[C@H](/C=C/[C@H]2[C@H](C)[C@@H]2/C=C/[C@@H](C)/C=C(\C)[C@H]2CC=C(C)[C@@H](CC)O2)O[C@H](CC(N)=O)C[C@@H]1N(C)C [I-ii, (5S,6R)-5-(dimethylamino)-6-ethoxycarbonyloxy-polyangiamide]	1	1	1.41	1	1.58	1	1.58	0.5	0.5 to 1	0.25 (≈ 0.436 µM)	0.25 to 0.5	–	–	–	–	–	MIC C. posadasii C735 (C. posadasii): 0.5 µg/mL (≈ 0.873 µM); MIC C. posadasii RMSCC 2127 (C. posadasii): 0.25 µg/mL (≈ 0.436 µM); MIC C. posadasii Silveria (C. posadasii): 0.5 µg/mL (≈ 0.873 µM); MIC C. immitis RMS 2281 (C. immitis): 0.125 µg/mL (≈ 0.218 µM); MIC C. immitis RS (C. immitis): 0.25 µg/mL (≈ 0.436 µM); MIC C. immitis S46 (C. immitis): 0.25 µg/mL (≈ 0.436 µM)
OC(Cn1cncn1)(Cn1cncn1)c1ccc(F)cc1F [Fluconazole]	–	–	–	–	–	–	–	–	–	–	–	–	–	–	–	–	MIC (C. posadasii; read-out: MIC C. posadasii C735): 16 µg/mL (≈ 52.2 µM); MIC (C. posadasii; read-out: MIC C. posadasii RMSCC 2127): 16 µg/mL (≈ 52.2 µM); MIC (C. posadasii; read-out: MIC C. posadasii Silveria): 4 µg/mL (≈ 13.1 µM); MIC (C. immitis; read-out: MIC C. immitis RMS 2281): 16 µg/mL (≈ 52.2 µM); MIC (C. immitis; read-out: MIC C. immitis RS): 16 µg/mL (≈ 52.2 µM); MIC (C. immitis; read-out: MIC C. immitis S46): 16 µg/mL (≈ 52.2 µM)
CCCCN(C)[C@H]1C[C@@H](CC(=O)O)O[C@@H](/C=C/[C@H]2[C@H](C)[C@@H]2/C=C/[C@@H](C)/C=C(\C)[C@H]2CC=C(C)[C@@H](CC)O2)[C@@H]1O [I-u, (5S,6R)-5-(N-butyl-methylamino)-6-hydroxypolyangioic acid]	4.5	4.25	11.31	4	3.17	2.82	3.17	5.65	1 (≈ 1.84 µM)	2 (≈ 3.68 µM)	2 (≈ 3.68 µM)	>12.5	>12.5	>12.5	<0.19	<0.19	–
CC[C@H]1O[C@@H](/C(C)=C/[C@H](C)/C=C/[C@H]2[C@@H](C)[C@@H]2/C=C/[C@@H]2O[C@H](CC(=O)O)C[C@H](N(C)CC)[C@H]2O)CC=C1C [I-a, (5S,6R)-5-(N-ethyl-methylamino)-6-hydroxypolyangioic acid]	2.0	2.0	5.65	2.51	2	4	2	1.41	1 (≈ 1.94 µM)	2 (≈ 3.88 µM)	2 (≈ 3.88 µM)	–	–	–	–	–	–
CC[C@H]1O[C@@H](/C(C)=C/[C@H](C)/C=C/[C@H]2[C@@H](C)[C@@H]2/C=C/[C@@H]2O[C@H](CC(=O)O)C[C@H](N(C)C)[C@H]2O)CCC1C (stereo partly drawn) [IV-b, 20,21-dihydro ambruticin VS-3]	0.44	0.88	4	1.25	2.51	1.41	2.51	1.41	–	–	–	–	–	–	–	–	–
CC[C@H]1O[C@@H](/C(C)=C/[C@H](C)/C=C/[C@H]2[C@@H](C)[C@@H]2/C=C/[C@@H]2O[C@H](CC(=O)O)C[C@H](NC3CCCC3)[C@H]2O)CC=C1C [I-d, (5S,6R)-5-(cyclopentylamino)-6-hydroxypolyangioic acid]	8.0	8.0	8	2.51	2.51	4	3.17	2.82	–	–	–	>12.5	>12.5	>12.5	<0.19	<0.19	–
CC[C@H]1O[C@@H](/C(C)=C/[C@H](C)/C=C/[C@H]2[C@@H](C)[C@@H]2/C=C/[C@@H]2O[C@H](CC(=O)N3CCC3)C[C@H](N(C)C)[C@H]2O)CC=C1C [I-pp, (5S,6R)-1-(azetidin-1-yl)-5-dimethylamino-6-hydroxypolyangi-1-one]	2	4	–	–	–	–	–	–	–	–	–	–	–	–	–	–	MIC0 Tm ([1]; Trichophyton mentagrophytes (2 strains), 95% growth inhibition): 4 µg/mL; MIC0 Mg (Microsporum gypseum; Microsporum gypseum (3 strains), 95% growth inhibition): 2.51 µg/mL; MIC0 Ti ([2]; Trichophyton interdigitale (3 strains), 95% growth inhibition): 5.03 µg/mL; MIC0 Ef (Epidermophyton floccosum; Epidermophyton floccosum (2 strains), 95% growth inhibition): 2.82 µg/mL; MIC0 Tr (Trichophyton rubrum; Trichophyton rubrum (3 strains), 95% growth inhibition): ¼; MIC0 Mc (Microsporum canis; Microsporum canis (2 strains), 95% growth inhibition): 1 µg/mL
CCN[C@H]1C[C@@H](CC(=O)O)O[C@@H](/C=C/[C@H]2[C@H](C)[C@@H]2/C=C/[C@@H](C)/C=C(\C)[C@H]2CC=C(C)[C@@H](CC)O2)[C@@H]1O [I-mm, (5S,6R)-5-(ethylamino)-6-hydroxypolyangioic acid]	0.93	1.28	2.82	0.79	0.79	1.41	1.25	0.7	0.125 (≈ 0.249 µM)	0.25 (≈ 0.498 µM)	0.0625 (≈ 0.125 µM)	>12.5	>12.5	>12.5	<0.19	<0.19	–
CCC(=O)N[C@H]1C[C@@H](CC(=O)O)O[C@@H](/C=C/[C@H]2[C@H](C)[C@@H]2/C=C/[C@@H](C)/C=C(\C)[C@H]2CC=C(C)[C@@H](CC)O2)[C@@H]1O [I-l, (5S,6R)-5-propionamido-6-hydroxypolyangioic acid]	16	8	5.66	0.79	0.79	2.82	1.58	1.41	–	–	–	–	–	–	–	–	–
CC[C@H]1O[C@@H](/C(C)=C/[C@H](C)/C=C/[C@H]2[C@@H](C)[C@@H]2/C=C/[C@@H]2O[C@H](CC(=O)O)C[C@H](NC3CCC3)[C@H]2O)CC=C1C [I-jj, (5S,6R)-5-(cyclobutylamino)-6-hydroxypolyangioic acid]	5.33	6.67	>8	1.25	2.51	5.65	3.17	8	0.125 (≈ 0.237 µM)	2 (≈ 3.79 µM)	2 (≈ 3.79 µM)	–	–	–	–	–	–
CCCN(C)[C@H]1C[C@@H](CC(=O)O)O[C@@H](/C=C/[C@H]2[C@H](C)[C@@H]2/C=C/[C@@H](C)/C=C(\C)[C@H]2CC=C(C)[C@@H](CC)O2)[C@@H]1O [I-t, (5S,6R)-5-(N-propyl-methylamino)-6-hydroxypolyangioic acid]	2.25	2.25	11.31	2	1.25	1.41	1.58	2.82	0.5 (≈ 0.944 µM)	1 (≈ 1.89 µM)	0.5 (≈ 0.944 µM)	>12.5	>12.5	>12.5	<0.19	<0.19	–
C=CCNC(=O)N(C)[C@H]1C[C@@H](CC(=O)O)O[C@@H](/C=C/[C@H]2[C@H](C)[C@@H]2/C=C/[C@@H](C)/C=C(\C)[C@H]2CC=C(C)[C@@H](CC)O2)[C@@H]1O [I-q, (5S,6R)-5-(3-allyl-1-methylureido)-6-hydroxypolyangioic acid]	32	16	>8	>8	12.69	>8	>8	>8	–	–	–	–	–	–	–	–	–
